Drawing on PubChem BioAssay (NCI), this text covers TGI for 15 compounds.

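Method: 48-hour compound exposure of cells in 96-well plates, five concentrations, linear interpolation of endpoints. TGI denotes the concentration required for complete inhibition of growth.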

Common to all, as to assay: NCI-60 cell line screen, 48 h
For test [1], the system named is MOLT-4 leukemia.
Test [2] has as its system K-562 leukemia.
Test [3] has as its system HL-60(TB) leukemia.
The test system of test [4] is SK-MEL-5 melanoma.
Test [5] deals with HOP-62 NSCLC.
Test [6] relates to HCT-116 colon.
Test [7] deals with RXF 393 renal.
Test [8] deals with NCI-H226 lung.
Test [9] relates to A549 NSCLC.
The subject of test [10] is MALME-3M melanoma.

In the case of `COc1ccc(C=C2C(C)=NN(c3cccc(Cl)c3)C23C(Cl)C(=O)N3c2nc3ccccc3s2)cc1` (stereo not given), the TGI in test [1] is 68 µM; in test [2] it was more than 100 µM; in test [3] it was 6.62 µM; in test [4], 32.9 µM; in test [5] it was 44.4 µM; in [6], 28.8 µM. The TGI was found to be 28 µM in test [7] and 79.1 µM in [8].

Consider `CC1(c2ccc(Cl)cc2)c2ccccc2C(=O)N1CCCN1C(=O)c2ccccc2C1=O` (stereo not given), for which the TGI in [1] was more than 100 µM; in [2] it was more than 100 µM; in test [3], more than 100 µM; in test [9], more than 100 µM; in test [4] it was 31 µM; in test [5] it was more than 100 µM. Moreover, the values for the TGI in test [6], in [7] and in test [8] were 37.6 µM, 94.5 µM and 63.4 µM, respectively.

Take `C=C(C)C1CCC2(C)C1CCC1(C)C2CCC2C3(C)C4OC(OC4=O)C(C)(C)C3CCC21C` (stereo not given): the TGI in test [1] is more than 100 µM; in test [2], more than 100 µM; in test [3], 80.1 µM; in test [9], more than 100 µM; in test [4], more than 100 µM; in test [5], more than 100 µM. Further, the TGI in test [6], in test [7] and in test [8] was more than 100 µM each time.

Consider `O=c1[nH]c(NCCCCCO)nc2nc[nH]c12`, for which the TGI in [1], in test [2], in test [3], in test [4], in test [5] and in test [6] was more than 100 µM in each case. Also, the TGI in test [8] and in test [10] was more than 100 µM throughout.

Regarding `CCCCCCCCCCCCCCCCOC[C@H](COC(c1ccccc1)(c1ccccc1)c1ccccc1)O[P+](=S)OC` (stereo not given in full), the TGI in test [1], in test [2], in test [3], in test [9], in test [4] and in [6] was more than 100 µM each time. Moreover, the TGI in [7] and in [8] was more than 100 µM in each case.

Consider `c1csc(-c2cc(-c3ccsc3)cs2)c1`, for which the TGI in test [1], in test [2], in test [3], in test [9], in [4] and in test [5] was more than 100 µM each time. Also, the TGI in [6] and in test [7] was more than 100 µM in each case.

As to `CC(C)(C)C(=O)C(N)C(=O)C(C)(C)C`, the TGI in [1], in test [2], in [3], in test [9], in test [4] and in test [5] was more than 100 µM each time. The TGI in test [6], in [7] and in [10] was more than 100 µM each time.

`Cc1cc(Br)c(O)c(-c2cscn2)c1`: the TGI amounted to 25.2 µM in [2]; 12.7 µM in test [3]; 50.4 µM in [9]; 30.5 µM in [4]; 41.2 µM in [5]; 25.2 µM in [6]. This compound also gave a TGI in test [10] of 43.7 µM.

On to `CCCCCCCCCCCCCCCC[N+](C)(C)CCl`, for which the TGI in [3] stood at 3.12 µM; in test [9], 22.3 µM; in test [4], 2.94 µM; in test [5], 6.69 µM; in [6], 4.98 µM; in [8], 6.25 µM. Also, in test [10], the TGI worked out at 7.38 µM.

Regarding `Cn1c(COC(=O)NC2CCCCC2)c(COC(=O)NC2CCCCC2)c2ccc3ccccc3c21`, the TGI in test [1], in [2], in test [9], in [4], in test [5] and in [6] was more than 100 µM throughout. The results for the TGI in [7], in [8] and in [10] were 83.3 µM, 95.8 µM and more than 100 µM, respectively.

For `COc1cc(C2C3=C(NC(=O)C2C#N)c2ccc4ccccc4c2OCC3)cc(OC)c1OC` (stereo not given), the TGI in test [1] was more than 100 µM; in test [2], more than 100 µM; in test [3], more than 100 µM; in test [9] it was more than 100 µM; in [4] it was more than 100 µM; in test [5] it was 50.5 µM. Moreover, the TGI was 29.1 µM in test [6], 32.9 µM in test [7] and 72.5 µM in [10].

Turning to `O=C(CN1CCCC1)Nc1ccc2c(c1)C1Oc3ccccc3CC1CO2` (stereo not given), the TGI in test [1] is more than 100 µM; in test [2], more than 100 µM; in test [3], more than 100 µM; in [9], more than 100 µM; in test [4], 28.2 µM; in [5] it was 45.5 µM. Also, the TGI in test [6] was more than 100 µM; in [8] it was more than 100 µM; in [10] it was 33.4 µM.

Turning to `COc1cc(CNc2nc3c(NC(C)=O)cc(C(F)(F)F)cc3nc2-c2ccccc2)cc(OC)c1OC`, the TGI in test [1], in test [2], in test [9], in test [4], in [5] and in test [6] was more than 100 µM in each case. The TGI in test [7], in test [8] and in test [10] was more than 100 µM in each case.

As for `N#Cc1nc(-c2ccsc2)oc1N`, the TGI in [1], in test [2], in test [3], in test [9], in [4] and in test [5] was more than 100 µM each time. The TGI in [6] and in test [7] was more than 100 µM in each case.

Turning to `COC1=C(OC)C(=O)C(Cc2c(-c3ccccc3)nc3sc(Cl)cn23)=C(C)C1=O`, the TGI in test [2] stood at 52.4 µM; in test [3] it was 24.7 µM; in test [9], 52 µM; in test [4] it was 29.2 µM; in test [5], 38.2 µM; in test [6], 39.9 µM. Besides, the TGI came to 33.3 µM in [7] and 33.2 µM in [10].
